How the values were obtained:
Experiment in all cases: Post-emergence efficacy, glasshouse
Format in all cases: in vivo
[1] = tested on: Euphorbia heterophylla (EPHHL); details: Euphorbia heterophylla, post-emergence, 312 h; Application Rate 1000 g/Ha; evaluated after 13 days; 100=total damage to plant, 0=no damage to plant; read-out: Control of weed species after post-emergence application, EPHHL
Method: (§1) Seeds of a variety of test species were sown in standard soil in pots. After cultivation for 14 days (post-emergence) under controlled conditions in a glasshouse (at 24/16° C., day/night; 14 hours light; 65% humidity), the plants were sprayed with an aqueous spray solution derived from the dissolution of the technical active ingredient formula (I) in a small amount of acetone and a special solvent and emulsifier mixture referred to as IF50 (11.12% Emulsogen EL360™+44.44% N-methylpyrrolidone+44.44% Dowanol DPM glycol ether), to create a 50 g/l solution which was then diluted to required concentration using 0.25% or 1% Empicol ESC70 (Sodium lauryl ether sulphate)+1% ammonium sulphate in water as diluent.
(§2) The test plants were then grown in a glasshouse under controlled conditions (at 24/16° C., day/night; 14 hours light; 65% humidity) and watered twice daily. After 13 days the test was evaluated (100=total damage to plant; 0=no damage to plant).
(§3) Ipomoea hederacea (IPOHE), Euphorbia heterophylla (EPHHL), Chenopodium album (CHEAL), Amaranthus palmeri (AMAPA), Lolium perenne (LOLPE), Digitaria sanguinalis (DIGSA), Eleusine indica (ELEIN), Echinochloa crus-galli (ECHCG), Setaria faberi (SETFA)

[2] = tested on: Digitaria sanguinalis (DIGSA); details: Digitaria sanguinalis, post-emergence, 312 h; Application Rate 1000 g/Ha; evaluated after 13 days; 100=total damage to plant, 0=no damage to plant; read-out: Control of weed species after post-emergence application, DIGSA
Method: as §1, §2, §3

Eleusine indica (ELEIN) = details: Eleusine indica, post-emergence, 312 h; Application Rate 1000 g/Ha; evaluated after 13 days; 100=total damage to plant, 0=no damage to plant; read-out: Control of weed species after post-emergence application, ELEIN
Method: as §1, §2, §3

[3] = tested on: Amaranthus palmeri (AMAPA); details: Amaranthus palmeri, post-emergence, 312 h; Application Rate 1000 g/Ha; evaluated after 13 days; 100=total damage to plant, 0=no damage to plant; read-out: Control of weed species after post-emergence application, AMAPA
Method: as §1, §2, §3

[4] = tested on: Ipomoea hederacea (IPOHE); details: Ipomoea hederacea, post-emergence, 312 h; Application Rate 1000 g/Ha; evaluated after 13 days; 100=total damage to plant, 0=no damage to plant; read-out: Control of weed species after post-emergence application, IPOHE
Method: as §1, §2, §3

[5] = tested on: Chenopodium album (CHEAL); details: Chenopodium album, post-emergence, 312 h; Application Rate 1000 g/Ha; evaluated after 13 days; 100=total damage to plant, 0=no damage to plant; read-out: Control of weed species after post-emergence application, CHEAL
Method: as §1, §2, §3

Setaria faberi (SETFA) = details: Setaria faberi, post-emergence, 312 h; Application Rate 1000 g/Ha; evaluated after 13 days; 100=total damage to plant, 0=no damage to plant; read-out: Control of weed species after post-emergence application, SETFA
Method: as §1, §2, §3

Lolium perenne (LOLPE) = details: Lolium perenne, post-emergence, 312 h; Application Rate 1000 g/Ha; evaluated after 13 days; 100=total damage to plant, 0=no damage to plant; read-out: Control of weed species after post-emergence application, LOLPE
Method: as §1, §2, §3

[6] = tested on: Echinochloa crus-galli (ECHCG); details: Echinochloa crus-galli, post-emergence, 312 h; Application Rate 1000 g/Ha; evaluated after 13 days; 100=total damage to plant, 0=no damage to plant; read-out: Control of weed species after post-emergence application, ECHCG
Method: as §1, §2, §3

SMILES | pest or weed control at 1000 g/ha [1] | pest or weed control at 1000 g/ha [2] | pest or weed control at 1000 g/ha (Eleusine indica (ELEIN)) | pest or weed control at 1000 g/ha [3] | pest or weed control at 1000 g/ha [4] | pest or weed control at 1000 g/ha [5] | pest or weed control at 1000 g/ha (Setaria faberi (SETFA)) | pest or weed control at 1000 g/ha (Lolium perenne (LOLPE)) | pest or weed control at 1000 g/ha [6]
O=P([O-])(O)c1c[n+](CCO)nc2ccccc12 [Compound A67, hydroxy-[2-(2-hydroxyethyl)cinnolin-2-ium-4-yl]phosphinate] | 30% | 90% | 10% | 30% | 30% | 60% | 50% | 0% | 20%
Cn1ncnc1NC(=O)c1c[n+](C)nc2ccccc12 [Compound A25, 2-methyl-N-(2-methyl-1,2,4-triazol-3-yl)cinnolin-2-ium-4-carboxamide iodide] | 20% | 10% | 10% | 50% | 30% | 50% | 20% | 10% | 10%
CC[n+]1cc(P(=O)([O-])O)c2ccccc2n1 [Compound A66] | 80% | 90% | 70% | 40% | 60% | 30% | 70% | 10% | 60%
CC(C)CP(=O)([O-])c1c[n+](C)nc2ccccc12 [Compound A45] | 100% | 90% | 100% | 100% | 90% | 90% | 90% | 50% | 70%
C[n+]1cc(C(=O)[N-]S(=O)(=O)c2ccc(Cl)s2)c2ccccc2n1 [Compound A39] | 20% | 10% | 10% | 80% | 30% | 30% | 30% | 0% | 20%
Cc1c(C(=O)[O-])c2ccccc2n[n+]1C [Compound A61, 2,3-dimethylcinnolin-2-ium-4-carboxylate] | 70% | 70% | 90% | 100% | 100% | 100% | 40% | 10% | 50%
Cn1nnnc1[N-]C(=O)c1c[n+](C)nc2ccccc12 [Compound A16] | 30% | 0% | 0% | 50% | 40% | 60% | 10% | 10% | 20%
COP(=O)([O-])c1c[n+](CCO)nc2ccccc12 [Compound A68, [2-(2-hydroxyethyl)cinnolin-2-ium-4-yl]-methoxy-phosphinate] | 100% | 100% | 100% | 100% | 100% | 100% | 90% | 40% | 60%
COC(=O)CC[n+]1cc(C(=O)[N-]S(C)(=O)=O)c2ccccc2n1 [Compound A18] | 10% | 30% | 20% | 10% | 20% | 10% | 10% | 0% | 20%
COC(=O)c1c[n+](C)nc2ccccc12 [Compound A2] | 70% | 60% | 70% | 100% | 70% | 70% | 60% | 30% | 30%
C[n+]1cc(C(=O)[N-]c2nnn[nH]2)c2ccccc2n1 [Compound A17] | 20% | 10% | 20% | 50% | 40% | 30% | 10% | 10% | 0%
C[n+]1cc(C(=O)[N-]S(=O)(=O)c2ccc(F)cc2)c2ccccc2n1 [Compound A38] | 60% | 30% | 90% | 60% | 20% | 50% | 40% | 0% | 20%
CCCCCCCC[n+]1cc(C(=O)[N-]S(C)(=O)=O)c2ccccc2n1 [Compound A40] | 30% | 20% | 10% | 90% | 10% | 70% | 40% | 20% | 20%
